These results are taken from patent publication US9751865B2, “Dihydro-hydantoin derivatives with herbicidal activity” (SYNGENTA PARTICIPATIONS AG, priority 2013, dated 2017).

Each structure is given as a SMILES string.

Format in all cases: in vivo
The subject of assay [1] is Setaria faberi. Description: Pre-emergence herbicidal activity, SETFA. The arrangement: key: 5=total damage to plant; 0=no damage to plant. The following applies: application pre-emergence, 1000 g/Ha, evaluated after 13 days, scale 0-5. As to the method:
(§1) Seeds of a variety of test species were sown in standard soil in pots. After cultivation for one day (pre-emergence) under controlled conditions in a glasshouse (at 24/16° C., day/night; 14 hours light; 65% humidity), the plants were sprayed with an aqueous spray solution derived from the formulation of the technical active ingredient in acetone/water (50:50) solution containing 0.5% Tween 20 (polyoxyethelyene sorbitan monolaurate, CAS RN 9005-64-5). The test plants were then grown in a glasshouse under controlled conditions (at 24/16° C., day/night; 14 hours light; 65% humidity) and watered twice daily. After 13 days, the test was evaluated (5=total damage to plant; 0=no damage to plant).

Assay [2] has as its system Amaranthus retroflexus. In words: Post-emergence herbicidal activity, AMARE. The arrangement: key: 5=total damage to plant; 0=no damage to plant. To be noted: application post-emergence, 1000 g/Ha, evaluated after 13 days, scale 0-5. As to the method:
(§2) Seeds of a variety of test species were sown in standard soil in pots. After 8 days cultivation (post-emergence) under controlled conditions in a glasshouse (at 24/16° C., day/night; 14 hours light; 65% humidity), the plants were sprayed with an aqueous spray solution derived from the formulation of the technical active ingredient in acetone/water (50:50) solution containing 0.5% Tween 20 (polyoxyethelyene sorbitan monolaurate, CAS RN 9005-64-5). The test plants were then grown in a glasshouse under controlled conditions (at 24/16° C., day/night; 14 hours light; 65% humidity) and watered twice daily. After 13 days, the test was evaluated (5=total damage to plant; 0=no damage to plant).

The subject of assay [3] is Zea mays. In words: Post-emergence herbicidal activity, ZEAMX. The arrangement: key: 5=total damage to plant; 0=no damage to plant. The following applies: application post-emergence, 1000 g/Ha, evaluated after 13 days, scale 0-5. As to the method: as §2
In assay [4] the test system is Abutilon theophrasti. In words: Pre-emergence herbicidal activity, ABUTH. The arrangement: key: 5=total damage to plant; 0=no damage to plant. The following applies: application pre-emergence, 1000 g/Ha, evaluated after 13 days, scale 0-5. As to the method:
as §1

The subject of assay [5] is Setaria faberi. Description: Post-emergence herbicidal activity, SETFA. The arrangement: key: 5=total damage to plant; 0=no damage to plant. The following applies: application post-emergence, 1000 g/Ha, evaluated after 13 days, scale 0-5. As to the method:
as §2

Assay [6] has as its system Alopecurus myosuroides. Description: Post-emergence herbicidal activity, ALOMY. The arrangement: key: 5=total damage to plant; 0=no damage to plant. To be noted: application post-emergence, 1000 g/Ha, evaluated after 13 days, scale 0-5. The method, then:
as §2

Assay [7] concerns Alopecurus myosuroides. Description: Pre-emergence herbicidal activity, ALOMY. To be noted: application pre-emergence, 1000 g/Ha, evaluated after 13 days, scale 0-5. The method, then:
as §1

Assay [8] deals with Amaranthus retroflexus. In words: Pre-emergence herbicidal activity, AMARE. The arrangement: key: 5=total damage to plant; 0=no damage to plant. The following applies: application pre-emergence, 1000 g/Ha, evaluated after 13 days, scale 0-5. The method, then:
as §1

For assay [9], the system named is Zea mays. In words: Pre-emergence herbicidal activity, ZEAMX. The arrangement: key: 5=total damage to plant; 0=no damage to plant. To be noted: application pre-emergence, 1000 g/Ha, evaluated after 13 days, scale 0-5. As to the method: as §1
The subject of assay [10] is Echinochloa crus-galli. Description: Pre-emergence herbicidal activity, ECHCG. The arrangement: key: 5=total damage to plant; 0=no damage to plant. The following applies: application pre-emergence, 1000 g/Ha, evaluated after 13 days, scale 0-5. As to the method: as §1
Assay [11] concerns Abutilon theophrasti. Description: Post-emergence herbicidal activity, ABUTH. To be noted: application post-emergence, 1000 g/Ha, evaluated after 13 days, scale 0-5. The arrangement: key: 5=total damage to plant; 0=no damage to plant. The method, then:
as §2

In assay [12] the test system is Echinochloa crus-galli. In words: Post-emergence herbicidal activity, ECHCG. The arrangement: key: 5=total damage to plant; 0=no damage to plant. The following applies: application post-emergence, 1000 g/Ha, evaluated after 13 days, scale 0-5. The method, then:
as §2

Regarding `CON1C(=O)N(c2cc3n(n2)CCC3(C)C)C(O)C1C` (stereo not drawn) [Compound A1], the results for the SETFA damage score in assay [1] and in assay [5] were 4 and 5, respectively. The AMARE damage score in assay [2] and in assay [8] was 5 each time. Further, the ZEAMX damage score was 5 in assay [3] and 3 in [9]. For the same compound, the ABUTH damage score in assay [4] and in [11] was 5 in each case. In addition, the ALOMY damage score in [6] and in assay [7] was 4 throughout. The ECHCG damage score in assay [10] and in assay [12] was 5 throughout.
Regarding `CC1C(O)N(c2cc(C(F)(F)F)n(C)n2)C(=O)N1C` (stereo not drawn) [Compound A2, 4-hydroxy-1,5-dimethyl-3-[1-methyl-5-(trifluoromethyl)pyrazol-3-yl]imidazolidin-2-one], the SETFA damage score in [1] amounted to 4; in assay [5], 5. The AMARE damage score in [2] and in [8] was 5 in each case. Besides, the ZEAMX damage score in [3] and in [9] was 4 each time. The ABUTH damage score in assay [4] and in assay [11] was 5 in each case. For the same compound, the results for the ALOMY damage score in assay [6] and in [7] were 5 and 4, respectively. Also, the ECHCG damage score in [10] was 4; in [12], 5.
Regarding `CON1C(=O)N(c2cc(C(C)(C)C)n(C)n2)C(O)C1C` (stereo not drawn) [Compound A3], the figures for the SETFA damage score in [1] and in assay [5] were 4 and 5, respectively. Moreover, the AMARE damage score in [2] and in assay [8] was 5 throughout. The ZEAMX damage score was found to be 4 in [3] and 3 in assay [9]. For the same compound, the ABUTH damage score in assay [4] and in assay [11] was 5 in each case. Further, the ALOMY damage score is recorded as 5 in assay [6] and 4 in assay [7]. The ECHCG damage score in [10] came to 4; in assay [12], 5.
With `CON1C(=O)N(c2cc(C(F)(F)F)n(C)n2)C(O)C1C` (stereo not drawn) [Compound A4, 4-hydroxy-1-methoxy-5-methyl-3-[1-methyl-5-(trifluoromethyl)pyrazol-3-yl]imidazolidin-2-one], the SETFA damage score in [1] was found to be 4; in assay [5] it was 5. Also, the AMARE damage score in assay [2] and in assay [8] was 5 in each case. Moreover, the ZEAMX damage score is 5 in assay [3] and 3 in [9]. Also, the ABUTH damage score in assay [4] and in [11] was 5 in each case. Moreover, the ALOMY damage score was found to be 5 in [6] and 4 in assay [7]. Besides, the ECHCG damage score is listed as 4 in assay [10] and 5 in assay [12].
Take `CN1CC(O)N(c2nn(C)c(C(C)(C)C)c2C#N)C1=O` (stereo not drawn) [Compound A5]: the SETFA damage score in assay [1] worked out at 0; in assay [5] it was 3. For the same compound, the AMARE damage score is on record as 5 in assay [2] and 4 in assay [8]. The ZEAMX damage score in assay [3] turned out to be 2; in assay [9], 0. Also, the results for the ABUTH damage score in [4] and in [11] were 2 and 4, respectively. Besides, the ALOMY damage score was determined as 3 in [6] and 1 in [7]. Also, the ECHCG damage score in [10] is listed as 0; in assay [12], 3.
Consider `CC1C(O)N(c2nn(C)c(C(C)(C)C)c2C#N)C(=O)N1C` (stereo not drawn) [Compound A6], for which the SETFA damage score in [1] is reported as 2; in assay [5], 5. In addition, the AMARE damage score is listed as 5 in [2] and 2 in assay [8]. For the same compound, the ZEAMX damage score in assay [3] worked out at 2; in [9], 1. Moreover, the ABUTH damage score in assay [4] and in assay [11] was 5 in each case. The figures for the ALOMY damage score in assay [6] and in assay [7] were 4 and 1, respectively. In addition, the ECHCG damage score is listed as 2 in assay [10] and 4 in assay [12].
On to `CC1C(O)N(c2cc(C(C)(C)C)n(C)n2)C(=O)N1C` (stereo not drawn) [Compound A7], for which the SETFA damage score in assay [1] and in [5] was 5 throughout. Besides, the AMARE damage score in assay [2] and in assay [8] was 5 in each case. In addition, the results for the ZEAMX damage score in assay [3] and in [9] were 4 and 2, respectively. For the same compound, the ABUTH damage score is reported as 4 in [4] and 5 in assay [11]. Moreover, the ALOMY damage score in assay [6] and in assay [7] was 4 in each case. Moreover, the ECHCG damage score in assay [10] was determined as 4; in assay [12], 5.
For `COC(C)(C)c1cc(N2C(=O)N(C)CC2O)nn1C` (stereo not drawn) [Compound A18], the SETFA damage score in assay [1] was 4; in [5] it was 5. Further, the AMARE damage score in assay [2] and in assay [8] was 5 throughout. Moreover, the ZEAMX damage score in assay [3] and in [9] was 2 each time. The ABUTH damage score in [4] and in [11] was 5 in each case. Besides, the ECHCG damage score in assay [10] and in assay [12] was 4 each time.
For the compound `CON1C(=O)N(c2cc(C(C)(C)OC)n(C)n2)C(O)C1C` (stereo not drawn) [Compound A19], the SETFA damage score stood at 4 in [1] and 5 in assay [5]. Moreover, the AMARE damage score in [2] and in assay [8] was 5 each time. Besides, the ZEAMX damage score in assay [3] was found to be 3; in assay [9], 2. In addition, the ABUTH damage score in assay [4] and in assay [11] was 5 each time. In addition, the ECHCG damage score is reported as 4 in assay [10] and 5 in [12].
Consider `COC(C)(C)c1cc(N2C(=O)N(C)C(C)C2O)nn1C` (stereo not drawn) [Compound A20], for which the SETFA damage score in assay [1] and in assay [5] was 4 throughout. Besides, the AMARE damage score in [2] and in assay [8] was 5 in each case. In addition, the ZEAMX damage score in assay [3] is reported as 3; in assay [9], 2. The ABUTH damage score in assay [4] and in [11] was 5 throughout. Also, the values for the ECHCG damage score in [10] and in [12] were 4 and 5, respectively.
With `COCC1C(O)N(c2cc(C(C)(C)OC)n(C)n2)C(=O)N1C` (stereo not drawn) [Compound A21], the SETFA damage score in assay [1] and in assay [5] was 4 each time. The AMARE damage score in assay [2] and in assay [8] was 5 throughout. Besides, the ZEAMX damage score in assay [3] and in assay [9] was 2 throughout. In addition, the ABUTH damage score in assay [4] and in [11] was 5 each time. In addition, the ECHCG damage score was 4 in assay [10] and 3 in assay [12].
`COCC1C(O)N(c2cc(C(C)(C)C)n(C)n2)C(=O)N1C` (stereo not drawn) [Compound A22]: the figures for the SETFA damage score in assay [1] and in assay [5] were 1 and 5, respectively. The AMARE damage score in assay [2] and in [8] was 5 in each case. Moreover, the figures for the ZEAMX damage score in assay [3] and in [9] were 4 and 0, respectively. Also, the ABUTH damage score in assay [4] and in assay [11] was 5 in each case. The compound further yielded an ALOMY damage score in [7] of 2. Also, the figures for the ECHCG damage score in assay [10] and in assay [12] were 1 and 5, respectively.
